For this experiment, the system named is modified procaine-binding aptamer (new sequence) (DNA, aptamer) AGACAAGGAAAATCCTTCAACGAAGTGGGTCG
Description: square-wave voltammetry, EAB sensor titration. Particulars: undiluted bovine CSF, 37 °C, immobilised aptamer; for binding: highest concentration not given.

Each structure is given as a SMILES string.

Consider `CCN(CC)CCO`, for which the binding entry was “no”.
In turn, `CCN(CC)CCOC(=O)c1ccc(N)cc1` yielded a Kd (Langmuir-Hill fit, ± is 95% confidence) of 960 ± 30 µM.
With `Nc1ccc(C(=O)O)cc1`, the binding entry is reported as “no”.

The values are drawn from article PMC10191434 (2023).
